According to BindingDB's records for doi:10.1016/j.bmcl.2015.06.046 (Cubist Pharmaceuticals, 2015):
pIC50: −log10 of the molar value.

Assay: Antagonist activity at CCR9 receptor (unknown origin) by serum chemotaxis assay

pIC50: 6.77
Structure (SMILES): CC(C)(C)c1ccc(S(=O)(=O)Nc2ccc(Cl)cc2-c2nccnc2NCCO)cc1
